Measured values: ChEMBL document CHEMBL4765421, “Synthesis of natural 3'-Prenylchalconaringenin and biological evaluation of ameliorating non-alcoholic fatty liver disease and metabolic syndrome” (Eur J Med Chem, 2020)
Calls of active or inactive are those of the source. The rule behind the calls is not given here.

Columns and labels:
Mus musculus [1] = assay: Hypolipidemic activity in tyloxapol-induced Kunming mouse model of hyperlipidemia assessed as reduction in liver total cholesterol level administered orally measured after 24 hrs; assay type: functional, organism-based
HepG2 [2] = assay: Cytotoxicity against human HepG2 cells assessed as reduction in cell viability at 10 to 20 uM by MTT assay; assay type: cell-based; conditions: hepg2, 20 µM, dose 10-20 µM
HepG2 [3] = assay: Hypolipidemic activity in oleic, palmitic, linoleic and arachidonic acid 29:47:18:6 (v/v)-induced hyperlipidemia in human HepG2 cells assessed as reduction in lipid content at 20 uM by Oil Red O staining based assay relative to control; assay type: functional; set-up: scale not given: the % may be the effect or the level left
HepG2 [4] = assay: Hypolipidemic activity in oleic, palmitic, linoleic and arachidonic acid 29:47:18:6 (v/v)-induced hyperlipidemia in human HepG2 cells assessed as reduction in lipid content by Nile Red and DAPI staining based fluorescence microscopic analysis; assay type: functional, cell-based
3T3-L1 [5] = assay: Hypolipidemic activity in mouse 3T3-L1 preadipocytes assessed as reduction in lipid content at 10 uM by Oil Red O staining based assay relative to control; assay type: functional; set-up: scale not given: the % may be the effect or the level left
3T3-L1 [6] = assay: Hypolipidemic activity in mouse 3T3-L1 preadipocytes assessed as reduction in lipid content at 5 uM by Oil Red O staining based assay relative to control; assay type: functional; set-up: scale not given: the % may be the effect or the level left
HepG2 [7] = assay: Activation of AMPK in oleic, palmitic, linoleic and arachidonic acid 29:47:18:6 (v/v)-induced human HepG2 cells assessed as increase in AMPK phosphorylation at 1 uM by Western blot analysis relative to control; conditions: filed as activator
Mus musculus [8] = assay: Hypolipidemic activity in tyloxapol-induced Kunming mouse model of hyperlipidemia assessed as reduction in serum total cholesterol level administered orally measured after 24 hrs; assay type: functional, organism-based
Mus musculus [9] = assay: Hypolipidemic activity in tyloxapol-induced Kunming mouse model of hyperlipidemia assessed as reduction in serum triglyceride level administered orally measured after 24 hrs; assay type: functional, organism-based
Mus musculus [10] = assay: Hypolipidemic activity in tyloxapol-induced Kunming mouse model of hyperlipidemia assessed as reduction in serum AST level administered orally measured after 24 hrs; assay type: functional, organism-based
Mus musculus [11] = assay: Hypolipidemic activity in tyloxapol-induced Kunming mouse model of hyperlipidemia assessed as increase in serum SOD level at 100 mg/kg, po measured after 24 hrs; assay type: functional, organism-based
Mus musculus [12] = assay: Hypolipidemic activity in tyloxapol-induced Kunming mouse model of hyperlipidemia assessed as reduction in lipid level in liver at 50 to 100 mg/kg, po measured after 24 hrs by Oil Red O staining based assay; assay type: functional, organism-based; conditions: dose 50-100 mg/kg
Mus musculus [13] = assay: Hypolipidemic activity in tyloxapol-induced Kunming mouse model of hyperlipidemia assessed as increase in appearance of hepatic lobules at 50 to 100 mg/kg, po measured after 24 hrs by Oil Red O staining based assay; assay type: functional, organism-based; conditions: dose 50-100 mg/kg
Mus musculus [14] = assay: Hypolipidemic activity in tyloxapol-induced Kunming mouse model of hyperlipidemia assessed as reduction in liver fibrosis at 50 to 100 mg/kg, po measured after 24 hrs by Masson's trichrome staining based assay; assay type: functional, organism-based; conditions: dose 50-100 mg/kg
Mus musculus [15] = assay: Hypolipidemic activity in tyloxapol-induced Kunming mouse model of hyperlipidemia assessed as reduction in liver LDL-C level administered orally measured after 24 hrs; assay type: functional, organism-based
Mus musculus [16] = assay: Hypolipidemic activity in tyloxapol-induced Kunming mouse model of hyperlipidemia assessed as reduction in liver ALT level administered orally measured after 24 hrs; assay type: functional, organism-based
Mus musculus [17] = assay: Hypolipidemic activity in tyloxapol-induced Kunming mouse model of hyperlipidemia assessed as kidney index at 100 mg/kg, po measured after 24 hrs (reference value: 11.20 +/- 0.58); assay type: functional
Mus musculus [18] = assay: Hypolipidemic activity in tyloxapol-induced Kunming mouse model of hyperlipidemia assessed as perirenal white adipose tissue index at 100 mg/kg, po measured after 24 hrs (reference value: 18.14 +/- 1.44); assay type: functional
Mus musculus [19] = assay: Hypolipidemic activity in tyloxapol-induced Kunming mouse model of hyperlipidemia assessed as spleen index at 50 mg/kg, po measured after 24 hrs (reference value: 3.87 +/- 0.05); assay type: functional
Mus musculus [20] = assay: In vivo induction of AMPK in tyloxapol-induced Kunming mouse model of hyperlipidemia assessed as increase in AKT phosphorylation in white adipose tissue at 50 to 100 mg/kg, po measured after 24 hrs by Western blot analysis; assay type: functional, organism-based; conditions: dose 50-100 mg/kg
Mus musculus [21] = assay: In vivo induction of AMPK in tyloxapol-induced Kunming mouse model of hyperlipidemia assessed as increase in AKT phosphorylation in liver at 50 to 100 mg/kg, po measured after 24 hrs by Western blot analysis; assay type: functional, organism-based; conditions: dose 50-100 mg/kg
Mus musculus [22] = assay: In vivo induction of AMPK in tyloxapol-induced Kunming mouse model of hyperlipidemia assessed as increase in ACC phosphorylation in white adipose tissue at 50 to 100 mg/kg, po measured after 24 hrs by Western blot analysis; assay type: functional, organism-based; conditions: dose 50-100 mg/kg
Mus musculus [23] = assay: In vivo induction of AMPK in tyloxapol-induced Kunming mouse model of hyperlipidemia assessed as increase in CPT-1A phosphorylation in white adipose tissue at 50 to 100 mg/kg, po measured after 24 hrs by Western blot analysis; assay type: functional, organism-based; conditions: dose 50-100 mg/kg
Mus musculus [24] = assay: In vivo induction of AMPK in tyloxapol-induced Kunming mouse model of hyperlipidemia assessed as decrease in SREBP1-C expression in liver at 50 to 100 mg/kg, po measured after 24 hrs by Western blot analysis; assay type: functional, organism-based; conditions: dose 50-100 mg/kg
Mus musculus [25] = assay: In vivo induction of AMPK in tyloxapol-induced Kunming mouse model of hyperlipidemia assessed as decrease in FAS expression in white adipose tissue at 50 to 100 mg/kg, po measured after 24 hrs by Western blot analysis; assay type: functional, organism-based; conditions: dose 50-100 mg/kg
Mus musculus [26] = assay: In vivo induction of AMPK in tyloxapol-induced Kunming mouse model of hyperlipidemia assessed as decrease in FAS expression in liver at 50 to 100 mg/kg, po measured after 24 hrs by Western blot analysis; assay type: functional, organism-based; conditions: dose 50-100 mg/kg
Mus musculus [27] = assay: In vivo effect on PPAR signaling in tyloxapol-induced Kunming mouse model of hyperlipidemia assessed as increase in mTOR phosphorylation in liver administered orally measured after 24 hrs by Western blot analysis; assay type: functional, organism-based
Mus musculus [28] = assay: In vivo effect on PPAR signaling in tyloxapol-induced Kunming mouse model of hyperlipidemia assessed as increase in PPARalpha expression in white adipose tissue at 50 to 100 mg/kg, po measured after 24 hrs by Western blot analysis; assay type: functional, organism-based; conditions: dose 50-100 mg/kg
Mus musculus [29] = assay: In vivo effect on PPAR signaling in tyloxapol-induced Kunming mouse model of hyperlipidemia assessed as increase in PPARalpha expression in liver at 50 to 100 mg/kg, po measured after 24 hrs by Western blot analysis; assay type: functional, organism-based; conditions: dose 50-100 mg/kg
Mus musculus [30] = assay: In vivo effect on PPAR signaling in tyloxapol-induced Kunming mouse model of hyperlipidemia assessed as increase in PPARbeta expression in liver at 50 to 100 mg/kg, po measured after 24 hrs by Western blot analysis; assay type: functional, organism-based; conditions: dose 50-100 mg/kg
Mus musculus [31] = assay: In vivo effect on PPAR signaling in tyloxapol-induced Kunming mouse model of hyperlipidemia assessed as decrease in PPARgamma expression in white adipose tissue at 50 to 100 mg/kg, po measured after 24 hrs by Western blot analysis; assay type: functional, organism-based; conditions: dose 50-100 mg/kg
Mus musculus [32] = assay: In vivo effect on PPAR signaling in tyloxapol-induced Kunming mouse model of hyperlipidemia assessed as decrease in PPARgamma expression in liver at 50 to 100 mg/kg, po measured after 24 hrs by Western blot analysis; assay type: functional, organism-based; conditions: dose 50-100 mg/kg

## CC(C)=CCC/C(C)=C/Cc1c(O)cc(O)c(C(=O)/C=C/c2ccc(O)cc2)c1O
Mus musculus [1]
  Activity: Dose-dependent effect
HepG2 [2]
  Activity: Non-Toxic
HepG2 [3]
  Activity: 66.31%
HepG2 [4]
  Activity: Dose-dependent effect
3T3-L1 [5]
  Activity: 67.87%
3T3-L1 [6]
  Activity: 49.29%
HepG2 [7]
  Activity: 42.9%
Mus musculus [8]
  Activity: Dose-dependent effect
Mus musculus [9]
  Activity: Dose-dependent effect
Mus musculus [10]
  Activity: Dose-dependent effect
Mus musculus [11]
  Activity: Active
Mus musculus [12]
  Activity: Active
Mus musculus [13]
  Activity: Active
Mus musculus [14]
  Activity: Active
Mus musculus [15]
  Activity: Dose-dependent effect
Mus musculus [16]
  Activity: Dose-dependent effect
Mus musculus [17]
  Activity_index: 9.29
Mus musculus [18]
  Activity_index: 9.83
Mus musculus [19]
  Activity_index: 2.8
Mus musculus [20]
  Activity: Active
Mus musculus [21]
  Activity: Active
Mus musculus [22]
  Activity: Active
Mus musculus [23]
  Activity: Active
Mus musculus [24]
  Activity: Active
Mus musculus [25]
  Activity: Active
Mus musculus [26]
  Activity: Active
Mus musculus [27]
  Activity: Dose-dependent effect
Mus musculus [28]
  Activity: Active
Mus musculus [29]
  Activity: Active
Mus musculus [30]
  Activity: Active
Mus musculus [31]
  Activity: Active
Mus musculus [32]
  Activity: Active
